Results: patent US20230104936A1, “TRPML MODULATORS” (Casma Therapeutics, Inc., priority 2019, published 2023)

Test system: TFEB
Assay: TFEB nuclear translocation assay, HeLa wt cells
Type: cell-based
Details: 2 hrs compound treatment, Table 1 does not say HeLa wt or TRPML1 KO
Outline: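 HeLa wt or TRPML1 KO cells treated 2 hrs with compounds at 37° C, fixed in 4% PFA, immunostained with anti-TFEB plus Alexa 488 secondary and Hoechst. Imaged at ×20, four fields/well; read-out is nuclear/perinuclear-ring TFEB intensity ratio, reported as AC50.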

Structure (SMILES) | AC50 (Homo sapiens, HeLa, 2 h) [nM] | AC50 [nM]
CN(C)S(=O)(=O)c1ccc(S(=O)(=O)Nc2cccc(F)c2N2CCC(CN3CC4C(C3)C4(F)F)CC2)cc1 (stereo not drawn) [Compound A-883, N4-{2-[4-({6,6-difluoro-3-azabicyclo[3.1.0]hexan-3-yl}methyl)piperidin-1-yl]-3-fluorophenyl}-N1,N1-dimethylbenzene-1,4-disulfonamide] | ≤ 2000 | –
COCCN1CC2(CCN(c3ccccc3NS(=O)(=O)c3ccc(S(C)(=O)=O)cc3)CC2)c2ccc(F)cc21 [Compound A-466, N-{2-[6-fluoro-1-(2-methoxyethyl)-1,2-dihydrospiro[indole-3,4′-piperidin]-1′-yl]phenyl}-4-methanesulfonylbenzene-1-sulfonamide] | ≤ 2000 | –
O=S1(=O)c2ccccc2CN1c1ccccc1N1CCC(c2ccc(Cl)cc2F)CC1 [Compound A-94, 2-{2-[4-(4-chloro-2-fluorophenyl)piperidin-1-yl]phenyl}-2,3-dihydro-1λ^6,2-benzothiazole-1,1-dione] | 2010 to 8000 | –
CN(C)S(=O)(=O)c1ccc(S(=O)(=O)Nc2ccccc2N2CCCC3(CCCO3)C2)cc1 (stereo not drawn) [Compound A-497, N1,N1-dimethyl-N4-(2-{1-oxa-7-azaspiro[4.5]decan-7-yl}phenyl)benzene-1,4-disulfonamide] | ≤ 2000 | –
CN(C)S(=O)(=O)c1ccc(S(=O)(=O)Nc2ccccc2N2CCC(COC(C)(F)F)CC2)cc1 [Compound A-739, N4-(2-{4-[(1,1-difluoroethoxy)methyl]piperidin-1-yl}phenyl)-N1,N1-dimethylbenzene-1,4-disulfonamide] | ≤ 2000 | –
CN1CC2(CCN(c3ccccc3NS(=O)(=O)c3ccc(S(=O)(=O)N(C)C)cc3)CC2)c2ccc(F)cc21 [Compound A-215, N4-(2-{6-fluoro-1-methyl-1,2-dihydrospiro[indole-3,4′-piperidin]-1′-yl}phenyl)-N1,N1-dimethylbenzene-1,4-disulfonamide] | ≤ 2000 | –
C[C@@H]1CN(CC2CCN(c3c(C#N)cccc3NS(=O)(=O)c3ccc(S(=O)(=O)N(C)C)cc3)CC2)C[C@H](C)O1 [Compound A-878, N4-[3-cyano-2-(4-{[(2R,6S)-2,6-dimethylmorpholin-4-yl]methyl}piperidin-1-yl)phenyl]-N1,N1-dimethylbenzene-1,4-disulfonamide] | ≤ 2000 | –
CC(C1CCN(c2c(F)cccc2NS(=O)(=O)c2ccc(S(=N)(=O)N(C)C)cc2)CC1)N1C[C@@H](C)O[C@@H](C)C1 (single isomer, unassigned) [Compound A-871B] | – | ≤ 2000
CS(=O)(=O)c1ccc(S(=O)(=O)Nc2ccccc2N2CCC(O)(c3ccc(Cl)cc3F)CC2)cc1 [Compound A-142, N-{2-[4-(4-chloro-2-fluorophenyl)-4-hydroxypiperidin-1-yl]phenyl}-4-methanesulfonylbenzene-1-sulfonamide] | 2010 to 8000 | –
COCC1(C)CCN(c2ccccc2NS(=O)(=O)c2ccc(S(=O)(=O)N3CCC3)cc2)CC1 [Compound A-736, 4-(azetidine-1-sulfonyl)-N-{2-[4-(methoxymethyl)-4-methylpiperidin-1-yl]phenyl}benzene-1-sulfonamide] | ≤ 2000 | –
CC(N1CCN(c2ccccc2NS(=O)(=O)c2ccc(S(=O)(=O)N(C)C)cc2)CC1)C(F)(F)F (stereo not drawn) [Compound A-456, N1,N1-dimethyl-N4-{2-[4-(1,1,1-trifluoropropan-2-yl)piperazin-1-yl]phenyl}benzene-1,4-disulfonamide] | ≤ 2000 | –
CN(C)S(=O)(=O)c1ccc(S(=O)(=O)Nc2ccccc2N2CCN(C(=O)C3(C)CCC3)CC2)cc1 [Compound A-425, N1,N1-dimethyl-N4-{2-[4-(1-methylcyclobutanecarbonyl)piperazin-1-yl]phenyl}benzene-1,4-disulfonamide] | 2010 to 8000 | –
Cn1nccc1S(=O)(=O)Nc1cccc(Cl)c1N1CCOCC1 [Compound A-329, N-[3-chloro-2-(morpholin-4-yl)phenyl]-1-methyl-1H-pyrazole-5-sulfonamide] | ≥ 10000 | –
CCN(CC)CC1CCN(c2ccccc2NS(=O)(=O)c2ccc(S(=O)(=O)N(C)C)cc2)CC1 [Compound A-549, N4-(2-{4-[(diethylamino)methyl]piperidin-1-yl}phenyl)-N1,N1-dimethylbenzene-1,4-disulfonamide] | 2010 to 8000 | –
C[C@@H]1CN(CC2CCN(c3c(F)cccc3NS(=O)(=O)c3ccc(C(F)F)cc3)CC2)C[C@H](C)O1 [Compound A-766, 4-(difluoromethyl)-N-[2-(4-{[(2R,6S)-2,6-dimethylmorpholin-4-yl]methyl}piperidin-1-yl)-3-fluorophenyl]benzene-1-sulfonamide] | ≤ 2000 | –
CN(C)S(=O)(=O)c1ccc(S(=O)(=O)Nc2cccc(Cl)c2N2CCCCC2)cc1 [Compound A-652, N4-[3-chloro-2-(piperidin-1-yl)phenyl]-N1,N1-dimethylbenzene-1,4-disulfonamide] | ≤ 2000 | –
O=S(=O)(Nc1cc(Cl)ccc1N1CCCC12CCOC2)c1ccc2c(c1)CCC2 (stereo not drawn) [Compound A-346, N-(5-chloro-2-{7-oxa-1-azaspiro[4.4]nonan-1-yl}phenyl)-2,3-dihydro-1H-indene-5-sulfonamide] | ≤ 2000 | –

Structure (SMILES) | AC50 (Homo sapiens, HeLa, 2 h) [nM] | AC50 [nM]
CP(C)(=O)c1ccc(S(=O)(=O)Nc2cccc(Cl)c2N2CCOCC2)cc1 [Compound A-287, N-[3-chloro-2-(morpholin-4-yl)phenyl]-4-(dimethylphosphoryl)benzene-1-sulfonamide] | ≥ 10000 | –
C=CP(=O)(C=C)c1ccccc1NS(=O)(=O)c1ccc(S(=O)(=O)N(C)C)cc1 [Compound A-227, N1-(2-(divinylphosphoryl)phenyl)-N4,N4-dimethylbenzene-1,4-disulfonamide] | ≥ 10000 | –
CS(=O)(=O)c1ccc(S(=O)(=O)Nc2ccccc2N2CCC(c3ncc(F)cc3F)CC2)cc1 [Compound A-131, N-{2-[4-(3,5-difluoropyridin-2-yl)piperidin-1-yl]phenyl}-4-methanesulfonylbenzene-1-sulfonamide] | ≤ 2000 | –
CC(=O)NC1(C)CCN(c2c(F)cccc2NS(=O)(=O)c2ccc(S(=O)(=O)N(C)C)cc2)CC1 [Compound A-795, N-(1-{2-[4-(dimethylsulfamoyl)benzenesulfonamido]-6-fluorophenyl}-4-methylpiperidin-4-yl)acetamide] | 8010 to 9990 | –
CC(c1cccc(F)c1N1CCC(CN2C3CCC2COC3)CC1)S(=O)(=O)c1ccc(S(=O)(=O)N(C)C)cc1 (stereo not drawn) [Compound A-839, 4-(1-{3-fluoro-2-[4-({3-oxa-8-azabicyclo[3.2.1]octan-8-yl}methyl)piperidin-1-yl]phenyl}ethanesulfonyl)-N,N-dimethylbenzene-1-sulfonamide] | – | ≤ 2000
Cc1ccc(S(=O)(=O)C(C)c2cccc(F)c2N2CCC(CN3C4CCC3COC4)CC2)cc1 (stereo not drawn) [Compound A-905, 8-[(1-{2-fluoro-6-[1-(4-methylbenzenesulfonyl)ethyl]phenyl}piperidin-4-yl)methyl]-3-oxa-8-azabicyclo[3.2.1]octane] | ≤ 2000 | –
O=S(=O)(Cc1ccon1)Nc1cccc(Cl)c1N1CCOCC1 [Compound A-365, N-[3-chloro-2-(morpholin-4-yl)phenyl]-1-(1,2-oxazol-3-yl)methanesulfonamide] | ≥ 10000 | –
O=S(=O)(Nc1ccccc1N1CCC(c2ccc(Cl)cc2F)CC1)c1ccccc1Cl [Compound A-76, 2-chloro-N-{2-[4-(4-chloro-2-fluorophenyl)piperidin-1-yl]phenyl}benzene-1-sulfonamide] | ≥ 10000 | –
CN(C)S(=O)(=O)c1ccc(S(=O)(=O)Nc2ccccc2N2CCC3(CC2)CN(C(=O)OC2CCOC2)c2cc(F)ccc23)cc1 (stereo not drawn) [Compound A-442, oxolan-3-yl 1′-{2-[4-(dimethylsulfamoyl)benzenesulfonamido]phenyl}-6-fluoro-1,2-dihydrospiro[indole-3,4′-piperidine]-1-carboxylate] | ≤ 2000 | –
CCC1(N2CCCC2)CCN(c2ccccc2NS(=O)(=O)c2ccc(S(=O)(=O)N(C)C)cc2)CC1 [Compound A-452, N4-{2-[4-ethyl-4-(pyrrolidin-1-yl)piperidin-1-yl]phenyl}-N1,N1-dimethylbenzene-1,4-disulfonamide] | 8010 to 9990 | –
CC(c1cccc(F)c1N1CCOCC1)S(=O)(=O)c1ccc2c(c1)CCS2(=O)=O (single isomer, unassigned) [Compound A-966, 5-((1-(3-fluoro-2-morpholinophenyl)ethyl)sulfonyl)-2,3-dihydrobenzo[b]thiophene 1,1-dioxide] | ≥ 10000 | –
CC(c1cccc(F)c1N1CCC(CN2C[C@H]3C[C@@H](C2)O3)CC1)S(=O)(=O)c1ccc(S(=O)(=O)N(C)C)cc1 (stereo partly drawn) [Compound A-837, 4-{1-[3-fluoro-2-(4-{[(1R,5S)-6-oxa-3-azabicyclo[3.1.1]heptan-3-yl]methyl}piperidin-1-yl)phenyl]ethanesulfonyl}-N,N-dimethylbenzene-1-sulfonamide] | ≤ 2000 | –
CC1(C)CC2(CCN(c3c(F)cccc3NS(=O)(=O)Cc3ccccc3)CC2)CO1 [Compound A-702, N-(2-{3,3-dimethyl-2-oxa-8-azaspiro[4.5]decan-8-yl}-3-fluorophenyl)-1-phenylmethanesulfonamide] | ≤ 2000 | –
COc1ccc(S(=O)(=O)Nc2ccccc2N2CCC(O)(c3ccc(F)cn3)CC2)cc1 [Compound A-409, N-{2-[4-(5-fluoropyridin-2-yl)-4-hydroxypiperidin-1-yl]phenyl}-4-methoxybenzene-1-sulfonamide] | ≥ 10000 | –
CC(C)(C)C(=O)N1CCN(c2ccccc2NS(=O)(=O)c2ccc(S(F)(F)(F)(F)F)cc2)CC1 [Compound A-575, N-{2-[4-(2,2-dimethylpropanoyl)piperazin-1-yl]phenyl}-4-(pentafluoro-λ^6-sulfanyl)benzene-1-sulfonamide] | 8010 to 9990 | –
O=S(=O)(Nc1cccc(F)c1N1CCC(CN2C3COCC2C3)CC1)c1ccc2c(c1)CCC2 [Compound A-876, N-{3-fluoro-2-[4-({3-oxa-6-azabicyclo[3.1.1]heptan-6-yl}methyl)piperidin-1-yl]phenyl}-2,3-dihydro-1H-indene-5-sulfonamide] | ≥ 10000 | –
